Laboratory results reported in patent publication US20150272881A1, “REDUCED PYRROLOQUINOLINE QUINONE GEL” (MITSUBISHI GAS CHEMICAL COMPANY, INC., priority 2011, published 2015).

Type: physicochemical
Description: The “solubility” in this description means the limit of dissolving of a solute in a solvent; it can be expressed as the concentration of a solute in a saturated solution. The solubility of the oxidized pyrroloquinoline quinone derivative or a salt thereof can be appropriately decided depending on the temperature of the mixture.

O=C([O-])c1cc(C(=O)[O-])c2c(n1)C(=O)C(=O)c1cc(C(=O)O)[nH]c1-2.[Na+].[Na+] [oxidized pyrroloquinoline quinone disodium]
solubility: 0.299 g with respect to 100 g of water
